Results taken from PubChem BioAssay (NCI).
Several values for one entry are separate records, joined by “and”; a condition that tells them apart may be missing. Identical values can stand only once.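 96-well plates; 48 h exposure; 5 concentrations. Endpoints by linear interpolation between flanking doses. Not reached: highest tested concentration assigned. The concentration for 50% growth inhibition is given as GI50. TGI is the concentration that stops growth completely.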

Columns and labels:
Assay in all cases: NCI-60 cell line screen, 48 h
OVCAR-3 ovarian = test system: OVCAR-3 ovarian
RPMI-8226 leukemia = test system: RPMI-8226 leukemia
MDA-MB-231 breast = test system: MDA-MB-231 breast
UACC-62 melanoma = test system: UACC-62 melanoma
NCI-H522 lung = test system: NCI-H522 lung
SNB-19 CNS = test system: SNB-19 CNS
SR leukemia = test system: SR leukemia
MDA-MB-435 = test system: MDA-MB-435
COLO 205 colon = test system: COLO 205 colon
SF-539 CNS = test system: SF-539 CNS

SMILES | GI50 (OVCAR-3 ovarian) [µM] | TGI (OVCAR-3 ovarian) | GI50 (RPMI-8226 leukemia) [µM] | TGI (RPMI-8226 leukemia) [µM] | GI50 (MDA-MB-231 breast) [µM] | TGI (MDA-MB-231 breast) [µM] | GI50 (UACC-62 melanoma) [µM] | TGI (UACC-62 melanoma) [µM] | GI50 (NCI-H522 lung) [µM] | TGI (NCI-H522 lung) [µM] | GI50 (SNB-19 CNS) [µM] | TGI (SNB-19 CNS) [µM] | GI50 (SR leukemia) [µM] | TGI (SR leukemia) [µM] | GI50 (MDA-MB-435) [µM] | TGI (MDA-MB-435) [µM] | GI50 (COLO 205 colon) [µM] | TGI (COLO 205 colon) [µM] | GI50 (SF-539 CNS) [µM] | TGI (SF-539 CNS) [µM]
O=C(Nc1ccccc1I(=O)=O)C1CCCCC1 | > 100 | > 100 µM | > 100 | > 100 | > 100 | > 100 | > 100 | > 100 | > 100 | > 100 | > 100 | > 100 | > 100 | > 100 | > 100 | > 100 | > 100 | > 100 | > 100 | > 100
Cc1cc(C)c(C#N)c(Sc2nc(C)c([N+](=O)[O-])c(C)c2C#N)n1 | 2.01 | 3.88 µM | 2.84 | 8.16 | 4.7 | 51 | 2.96 | 11.5 |  |  | 15.1 | 88 | 2.94 | > 100 | 2.1 | 4.75 | 2.58 | 5.55 | 2.43 | 6
Cc1cc(N(CCOS(C)(=O)=O)CCOS(C)(=O)=O)ccc1C(=O)O | > 100 | > 100 µM | > 100 | > 100 | > 100 | > 100 | > 100 | > 100 | 10.7 | > 100 | > 100 | > 100 | 40.7 | > 100 | > 100 | > 100 | > 100 | > 100 |  | 
COc1cccc2cc(N(C)c3nc(C)nc4c3CCC4)ccc12 | < 0.01 | < 0.01 µM | < 0.01 | 18.5 | < 0.01 | 14.7 |  | 18.1 | < 0.01 | < 0.01 | < 0.01 | 21.6 | < 0.01 | 11.3 |  |  | < 0.01 | < 0.01 | < 0.01 | < 0.01
C/C(CN1C(=O)c2ccccc2C1=O)=N\NS(=O)(=O)c1cccc(C(=O)O)c1 |  | > 100 µM |  | > 100 |  |  |  | > 100 |  | > 100 |  | > 100 |  | > 100 |  |  |  | > 100 |  | > 100
COCCOc1cc(C)cc(/C=C(C)/C=C/C2=C(C)CCCC2(C)C)n1 |  | > 100 µM |  | 52.3 |  |  |  | > 100 |  | > 100 |  | > 100 |  | > 100 |  |  |  | > 100 |  | > 100
CC1=C(C(=O)Nc2ccccc2)C(c2ccccc2Cl)C(C(=O)Nc2ccccc2)=C(C)N1 |  | 40.5 µM |  | 46.9 |  |  |  | 27.2 |  | 35.4 |  | 92.7 |  | 52.6 |  |  |  | 34.3 |  | 37.6
CC1OC(=O)C(O)=C1O (stereo unspecified) |  | > 100 µM |  | > 100 |  |  |  | > 100 |  | > 100 |  | > 100 |  | > 100 |  |  |  | > 100 |  | > 100
CCCOC(=O)c1c(C)n(C)c2scc[n+]12 | 30.6 | > 100 µM |  |  | > 100 | > 100 | > 100 | > 100 | 31.4 | > 100 | 36.3 | > 100 | 64 | > 100 | > 100 | > 100 | 17.8 | 46.8 | 91.2 | > 100
CCOC(=O)c1cc(-c2ccc(-c3cc(C(=O)OCC)c(C#N)c(N)c3C#N)cc2)c(C#N)c(N)c1C#N |  | > 100 µM |  | > 100 |  |  |  | > 100 |  | > 100 |  | > 100 |  | > 100 |  |  |  | > 100 |  | > 100
CCCCCCSSC(=S)N(CC)CC | 17.8 | 34.3 µM | 18.8 | > 100 | 17.5 | 39.2 | 17.2 | 36.9 | 1.66 | 21.3 | 40.3 | > 100 | 0.0589 | 29.1 | 22.1 | 57.9 |  |  | 17.5 | 43.3
c1ccc(OCCC[P+](c2ccccc2)(c2ccccc2)c2ccccc2)cc1 | 1.12 | 19.4 µM | 0.303 | 3.66 | 2.33 | 11.2 |  |  | 0.574 | 4.24 | 2.27 | 17.8 | 0.646 | 11.4 | 0.481 | 10.3 | 0.97 | 3.47 | 3.07 | 18.3
O=C1CSC(c2ccccc2Cl)N1c1nnc(Cn2cnnc2)o1 (stereo unspecified) | 3.4 | 10.7 µM | 5.77 | 95.5 | 12.1 | 29.9 | 7.55 | 27.5 | 10.4 | 38 |  |  | 3.51 | 19.1 | 2.2 | 5.96 | 10.5 | 23.2 | 13.6 | 35.2
COc1ccc(-c2ccc(/C=N/n3c(COc4ccccc4Cl)nn(CN4CCOCC4)c3=S)o2)c([N+](=O)[O-])c1 | 16.7 | 52.4 µM | 15.2 | 42.1 |  |  | 35 | > 100 | 38.9 | > 100 | 36.2 | > 100 |  |  | 17.1 | 42.3 | 36.6 | > 100 | 28.6 | 60.8
CN1Cc2ccccc2/C=C\c2ccccc21 |  | > 100 µM |  | 68.7 |  | > 100 |  | > 100 |  | > 100 |  | > 100 |  |  |  | > 100 |  | > 100 |  | > 100
CC(C)c1cc(C(C)C)c(S(=O)(=O)N=[N+]=[N-])c(C(C)C)c1 |  | > 100 µM |  | 97.6 |  |  |  | > 100 |  | > 100 |  | > 100 |  | > 100 |  |  |  | > 100 |  | > 100
CCCCCC(O)C(O)CCC[C@H](O)[C@H]1CC[C@H]([C@H]2CC[C@H]([C@H](O)CCCCCCCCCCCCC3=C[C@H](C)OC3=O)O2)O1 (stereo partly specified) | 12.3 | 8.38 µM and 31.6 µM |  | 4.51 | 17.6 | 82.9 |  | 7.54 |  | 23.9 | 4.61 | 21.4 |  |  | 6.84 |  |  | 14.2 | 12.1 | 37
